Patent US9321758B2, “Amorphous salt of a macrocyclic inhibitor of HCV” (Janssen Pharmaceuticals, Inc., priority 2009, dated 2016)

Key:
[1] = Water solubility; type: physicochemical
[2] = Clinical investigations, tolerability in patients; type: in vivo
[3] = Long-term storage stability of the amorphous form by powder XRD; type: physicochemical; conditions: stored during 1 year, 8 months and 23 days
Procedure: This means that the amorphous Na salt of TMC435 allows stable storage during a normal shelf life period. X-ray powder diffraction (XRPD) analysis was carried out on a Philips X′PertPRO MPD diffractometer PW3050/60 with generator PW3040. The instrument was equipped with a Cu LFF X-ray tube PW3373/10. The compound was spread on a zero background sample holder.

[4] = Adsorption-Desorption (DVS), dynamic vapor sorption; type: physicochemical; conditions: for water adsorbed: at high relative humidity
Procedure: Amorphous TMC435 (19 mg) was transferred into a SMS (Surface Measurement Systems Ltd.) dynamic vapor sorption model DVS-1 and the weight change was recorded with respect to the atmospheric humidity at 25° C.

Row | water solubility [1] | powder XRD pattern after storage compared with pattern shortly after preparation [3] | moisture remaining on the product during the desorption cycle ([4]; DVS desorption cycle, 25° C.) | weight loss during the initial drying step ([4]; DVS, drying 60 min under dry nitrogen, 25° C.) | water adsorbed ([4]; 25° C.) | water adsorbed ([4]; 25° C., listed as sodium salt of compound I) | stability when water is absorbed ([4]; brought into contact with humidity) | hygroscopicity ([4]; listed as Amorphous Sodium Salt Prepared According to Example 1) | hygroscopicity ([4]; listed as sodium salt of compound I) | solid form after DVS (IR and XRD) ([4]; product obtained after DVS) | SMILES | tolerability in patients [2]
1 | poorly water-soluble |  |  |  |  |  |  |  |  |  | COc1ccc2c(O[C@@H]3C[C@H]4C(=O)N[C@]5(C(=O)NS(=O)(=O)C6CC6)C[C@H]5/C=C\CCCCN(C)C(=O)[C@@H]4C3)cc(-c3nc(C(C)C)cs3)nc2c1C [TMC435, (1R,4R,6S,15R,17R)-cis-N-[17-[2-(4-isopropylthiazol-2-yl)-7-methoxy-8-methyl-quinolin-4-yloxy]-13-methyl-2,14-dioxo-3,13-diazatricyclo[13.3.0.0^4,6]octadec-7-ene-4-carbonyl] (cyclopropyl)sulfonamide] | well-tolerated
2 |  | remained essentially unchanged | 1.61% | 2.03% | up to 13% | up to 13.1% | remains stable | Hygroscopic | hygroscopic | remained amorphous | COc1ccc2c(O[C@@H]3C[C@H]4C(=O)N[C@]5(C(=O)[N-]S(=O)(=O)C6CC6)C[C@H]5/C=C\CCCCN(C)C(=O)[C@@H]4C3)cc(-c3nc(C(C)C)cs3)nc2c1C.[Na+] [amorphous sodium salt of TMC435] | 
